Consider 19 molecules from patent publication US9399030B2, “Topically applied circulation enhancing agent and skin and hair cosmetic and bath agent containing the same” (AJINOMOTO CO., INC., priority 2005, dated 2016).

For one series, the system named is conchae of hairless mice. Description: Vasodilating effect on the conchae of hairless mice, visual evaluation of red spots (Examples 2 and 4). The note with it: for Vasodilating effect, 5 wt %: 5 wt % in liquid paraffin; for Vasodilating effect, 5 wt % / Vasodilating effect, 1 wt %: symbols not defined in the patent; for Activity compared with capsiate: statement in the description; for Remarks: vasodilating effect: in liquid paraffin; for Vasodilating effect, 1 wt %: 1 wt % in liquid paraffin. Format: in vivo, hairless mouse (HR-1, female). The text has this: The vasodilating effects of capsinoids (a mixed product prepared by the method stated in Reference Example (5) was employed; see below) and capsaicin was compared using the conchae of hairless mice.
Test Method: A sample was applied on the right ear and a control was applied on the left ear of a hairless mouse (HR-1, female), and the development of red spots was visually evaluated.
Sample: (1) Capsinoids (1 weight percent and 5 weight percent dissolved in liquid paraffin)
(2) Capsaicin (1 weight percent and 5 weight percent dispersed in liquid paraffin)
(§1) In the same manner as in Example 2, the vasodilating effects of various capsinoid compounds were compared using the conchae of hairless mice. The samples were dissolved in liquid paraffin.

The nature of series [1]: Dissolution of the sample in liquid paraffin (Example 4). It is filed as physicochemical. How it is done: as §1

Regarding `CCC(C)CCCCCCC(=O)OCc1ccc(O)c(OC)c1` (centres unmarked) [Vanillyl 8-methyldecanoate, vanillyl 8-methyldecanoate], in the series with conchae of hairless mice (5 weight percent application), the “Remarks: disappearance of the vasodilating effect” value (shortened to “Remarks: disappearance”) is “disappeared in about two hour”. Besides, in the series with conchae of hairless mice, the “Vasodilating effect, 5 wt %” value is “◯” and the “Activity compared with capsiate” value was “about the same degree of activity as capsiate”.

As for `CCCCCCCCCC(=O)OCc1ccc(O)c(OC)c1` [Vanillyl decanoate, 4-hydroxy-3-methoxybenzyl decanoate (caprate)], in the series on conchae of hairless mice, the “Vasodilating effect, 5 wt %” value is on record as “◯” and the “Activity compared with capsiate” value is listed as “about the same degree of activity as capsiate”. The “Remarks: disappearance” value with conchae of hairless mice (concentration not given) is on record as “Vasodilating effect disappeared in about one hour”.

With `CCCCCCCCC(=O)OCc1ccc(O)c(OC)c1` [vanillyl nonanoate, 4-hydroxy-3-methyloxybenzyl nonanoate], the “Activity compared with capsiate” value in the series on conchae of hairless mice is listed as “about the same degree of activity as capsiate”.

Turning to `CC/C=C\C/C=C\C/C=C\CCCCCCCC(=O)OCc1ccc(O)c(OC)c1` [Vanillyl linolenate], the “Remarks: vasodilating effect” value with conchae of hairless mice is “No vasodilating effect”.

On to `CCCCCCCCCCC(=O)OCc1ccc(O)c(OC)c1` [Vanillyl undecanoate, vanillyl undecanoate], for which, in the series on conchae of hairless mice, the “Vasodilating effect, 5 wt %” value was “◯” and the “Activity compared with capsiate” value is recorded as “about the same degree of activity as capsiate”. In addition, the “Remarks: disappearance” value with conchae of hairless mice (concentration not given) is reported as “the effect disappeared more quickly than for C10”.

Consider `COc1cc(CNC(=O)CCCC/C=C/C(C)C)ccc1O` [Capsaicin, capsaicin, reference compound], for which the “Remarks: red spots still caused after” value with conchae of hairless mice (1 weight percent application) is on record as “even after two hours”. Also, in the series with conchae of hairless mice (1 weight percent dispersed in liquid paraffin), the “Persistence of red spots” value is reported as “retained their original form even after two hours”. For the same molecule, in the series on conchae of hairless mice (1 weight percent in liquid paraffin, applied on ear), the “Development of red spots (visual evaluation)” value is given as “red spots were observed”. Also, in the series with conchae of hairless mice, the “Vasodilating effect, 1 wt %” value is reported as “◯” and the “Vasodilating effect, 5 wt %” value is “◯”. Also, the “Development of red spots (visual evaluation)” value in the series on conchae of hairless mice (5 weight percent in liquid paraffin, 30 minutes after application) is on record as “clear red spots were observed”.

Consider `COc1cc(COC(=O)CCCCCCC(C)C)ccc1O` [Dihydrocapsiate, 4-hydroxy-3-methoxybenzyl 8-methylnonanoate], for which, in the series with conchae of hairless mice, the “Vasodilating effect, 1 wt %” value is “Δ” and the “Vasodilating effect, 5 wt %” value is “◯”. The “Remarks: weak red spots still caused after” value in the series on conchae of hairless mice (5 weight percent application) was “caused even after 90 minutes”.

In the case of `CCCCCCCC(=O)OCc1ccc(O)c(OC)c1` [Vanillyl octanoate, 4-hycroxy-3-methoxybenzyl octanoate], in the series with conchae of hairless mice, the “Vasodilating effect, 5 wt %” value was “◯” and the “Activity compared with capsiate” value is “about the same degree of activity as capsiate”. In addition, the “Remarks: disappearance” value in the series on conchae of hairless mice (concentration not given) is reported as “Vasodilating effect disappeared in about one hour”.

For the molecule `CCC(C)CCCCC(=O)OCc1ccc(O)c(OC)c1` (centres unmarked) [Vanillyl 6-methyloctanoate, vanillyl 6-methyloctanoate], the “Remarks: disappearance” value in the series on conchae of hairless mice (5 weight percent application) was “disappeared in about two hour”. Besides, in the series on conchae of hairless mice, the “Vasodilating effect, 5 wt %” value was “◯” and the “Activity compared with capsiate” value is listed as “about the same degree of activity as capsiate”.

Consider `COc1cc(COC(=O)CCCC/C=C/C(C)C)ccc1O` [Capsiate, 4-hydoxy-3-methoxybenzyl (E)-8-methyl-6-nonenoate], for which, in the series with conchae of hairless mice, the “Vasodilating effect, 1 wt %” value is given as “Δ” and the “Vasodilating effect, 5 wt %” value is “◯”. Besides, in the series on conchae of hairless mice (5 weight percent application), the “Remarks: weak red spots still caused after” value is given as “caused even after 90 minutes”.

For `COc1cc(COC(=O)CCCCCC(C)C)ccc1O` [Nordihydrocapsiate, nordihydrocapsiate], in the series with conchae of hairless mice, the “Vasodilating effect, 1 wt %” value is given as “Δ” and the “Vasodilating effect, 5 wt %” value is “◯”. Moreover, in the series on conchae of hairless mice (5 weight percent application), the “Remarks: weak red spots still caused after” value is “caused even after 90 minutes”.

Regarding `CCC(C)CCCCCC(=O)OCc1ccc(O)c(OC)c1` (centres unmarked) [Vanillyl 7-methylnonanoate, vanillyl 7-methylnonanoate], the “Remarks: disappearance” value with conchae of hairless mice (5 weight percent application) is on record as “disappeared in about two hour”. Moreover, in the series with conchae of hairless mice, the “Vasodilating effect, 5 wt %” value was “◯” and the “Activity compared with capsiate” value was “about the same degree of activity as capsiate”.

Turning to `CCCCCCCC/C=C\CCCCCCCC(=O)OCc1ccc(O)c(OC)c1` [Vanillyl oleate], the “Remarks: vasodilating effect” value in the series on conchae of hairless mice was “No vasodilating effect”.

`COc1cc(COC(=O)CCCCCCCC(C)C)ccc1O` [Vanillyl 9-methyldecanoate, vanillyl 9-methyldecanoate]: in the series with conchae of hairless mice (5 weight percent application), the “Remarks: disappearance” value is listed as “disappeared in about two hour”. Besides, in the series with conchae of hairless mice, the “Vasodilating effect, 5 wt %” value is “◯” and the “Activity compared with capsiate” value is on record as “about the same degree of activity as capsiate”.

Take `CCCCCCCCCCCCC(=O)OCc1ccc(O)c(OC)c1` [Vanillyl tridecanoate]: in the series with conchae of hairless mice, the “Remarks: vasodilating effect” value was “No vasodilating effect”.

Turning to `COc1cc(CO)ccc1O` [Vanillyl alcohol, reference compound], the “Remarks: vasodilating effect” value in the series with conchae of hairless mice is given as “No vasodilating effect”.

For `CCCCCCCCCCCCCCCCCC(=O)OCc1ccc(O)c(OC)c1` [Vanillyl octadecanoate], in the series on conchae of hairless mice, the “Remarks: vasodilating effect” value is recorded as “No vasodilating effect”.

Turning to `CCCCCCCCCCCCCCC(=O)OCc1ccc(O)c(OC)c1` [Vanillyl pentadecanoate], the “Remarks: dissolution in liquid paraffin” value in series [1] is given as “Not dissolved”.

Take `CCCCCCCCCCCC(=O)OCc1ccc(O)c(OC)c1` [Vanillyl dodecanoate]: the “Remarks: vasodilating effect” value with conchae of hairless mice is “No vasodilating effect”.
